According to ChEMBL document CHEMBL1201862, “PubChem BioAssay data set” (2004):
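1) Cells in 96-well plates. 2) Compound, 48 h, 5 concentrations. 3) Linear interpolation between surrounding doses. 4) Unreached endpoint = highest concentration. Here, GI50 denotes the concentration required for 50% inhibition of growth.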 Activity calls are given as the source filed them. No stated cut-off is given here; in the data, active = GI50 up to about 1.1 µM and inactive = higher.

What was measured:
Test in all cases: NCI tumour cell line growth inhibition, 48 h
A549 = system: A549
ACHN = system: ACHN
BT-549 = system: BT-549
DU-145 = system: DU-145
HCT-116 = system: HCT-116
HCT-15 = system: HCT-15
HL-60 = system: HL-60
HT-29 = system: HT-29
M14 = system: M14
MDA-MB-231 = system: MDA-MB-231
MDA-N = system: MDA-N
Malme-3M = system: Malme-3M
NCI/ADR-RES = system: NCI/ADR-RES
OVCAR-8 = system: OVCAR-8
RXF 393 = system: RXF 393
SF-539 = system: SF-539
SK-OV-3 = system: SK-OV-3
SNB-75 = system: SNB-75

Measured: GI50

C[N+](C)([O-])C12CC3CC(CC(C3)C1)C2
inactive: A549 25.8 µM | ACHN 26.4 µM | BT-549 34 µM | DU-145 37.2 µM | HCT-116 23.9 µM | HL-60 44.6 µM | HT-29 35.6 µM | M14 25.7 µM | MDA-MB-231 > 100 µM | MDA-N 31.8 µM | Malme-3M 54.3 µM | NCI/ADR-RES 31.6 µM | OVCAR-8 40.1 µM | RXF 393 37.5 µM | SF-539 23.4 µM | SK-OV-3 61.9 µM | SNB-75 28.2 µM
30.6 µM: HCT-15

O=[N+]([O-])c1ccc(S[C@@H]2[C@H]3c4c(-c5ccccc5)[nH]c(-c5ccccc5)c4[C@@H]2C[C@H]3Cl)cc1
2.39 µM: HCT-15
inactive: A549 2.74 µM | ACHN 3.7 µM | BT-549 3.66 µM | DU-145 3.31 µM | HCT-116 1.76 µM | HL-60 3.17 µM | HT-29 3.37 µM | M14 3.23 µM | MDA-MB-231 4.8 µM | MDA-N 2.89 µM | Malme-3M 10.6 µM | NCI/ADR-RES 2.87 µM | OVCAR-8 4.38 µM | SF-539 6.75 µM | SK-OV-3 9.98 µM | SNB-75 2.15 µM
active: RXF 393 0.938 µM

CC(=O)Nc1[nH]c(C#N)nc1C#N
inactive: A549 > 100 µM | ACHN > 100 µM | BT-549 > 100 µM | DU-145 > 100 µM | HCT-116 > 100 µM | HL-60 > 100 µM | HT-29 > 100 µM | M14 > 100 µM | MDA-MB-231 > 100 µM | MDA-N > 100 µM | Malme-3M > 100 µM | NCI/ADR-RES > 100 µM | OVCAR-8 > 100 µM | RXF 393 > 100 µM | SF-539 > 100 µM | SK-OV-3 > 100 µM | SNB-75 > 100 µM
> 100 µM: HCT-15

CCOP(=O)(OCC)C(C)(CC)NC (stereo not drawn)
> 100 µM: HCT-15
inactive: A549 > 100 µM | ACHN > 100 µM | BT-549 > 100 µM | DU-145 > 100 µM | HCT-116 > 100 µM | HL-60 > 100 µM | HT-29 > 100 µM | M14 > 100 µM | MDA-MB-231 > 100 µM | MDA-N > 100 µM | Malme-3M > 100 µM | NCI/ADR-RES > 100 µM | OVCAR-8 > 100 µM | RXF 393 > 100 µM | SF-539 > 100 µM | SK-OV-3 > 100 µM | SNB-75 > 100 µM

COc1c(-c2nc3ccc(N4CCN(C)CC4)cc3[nH]2)cc(OC)c2[nH]c(COC(C)=O)nc12
> 100 µM: HCT-15
inactive: A549 62.1 µM | ACHN 63.4 µM | BT-549 > 100 µM | DU-145 26.1 µM | HCT-116 32.4 µM | HL-60 59.8 µM | HT-29 36.7 µM | M14 19.6 µM | MDA-MB-231 34.2 µM | MDA-N 40.4 µM | Malme-3M 25.1 µM | NCI/ADR-RES > 100 µM | OVCAR-8 55.1 µM | RXF 393 11.8 µM | SF-539 36.6 µM | SK-OV-3 63.7 µM | SNB-75 9.4 µM

O=C(O)c1ccccc1/N=N/c1c(O)c(S(=O)(=O)O)cc2cc(S(=O)(=O)O)ccc12
> 100 µM: HCT-15
inactive: A549 > 100 µM | ACHN > 100 µM | BT-549 > 100 µM | DU-145 > 100 µM | HCT-116 > 100 µM | HL-60 > 100 µM | HT-29 > 100 µM | M14 > 100 µM | MDA-MB-231 > 100 µM | MDA-N > 100 µM | Malme-3M > 100 µM | NCI/ADR-RES > 100 µM | OVCAR-8 > 100 µM | RXF 393 > 100 µM | SF-539 > 100 µM | SK-OV-3 > 100 µM | SNB-75 > 100 µM
